{
  "source": "patent US11033559B2",
  "about": "“Leukocyte infiltration promoting agent and antitumor immunostimulatory agent” (OSAKA UNIVERSITY, priority 2015, dated 2021)",
  "assay_type_in_all_cases": "in vivo",
  "key": {"LLC cells": {"test_system": "LLC cells", "test": "Tumor growth inhibition, subcutaneous tumor formed from LLC cells", "conditions": "LLC-bearing mice; LPA 3 mg/kg i.p. once daily for seven days; 5-FU 100 mg/kg i.p. once weekly, 2 times", "experimental": "LLC cells (1×10^6 cells in 100 μL PBS per animal) were subcutaneously injected into C57BL/6 NCrSlc mice aged 8 weeks (females) in the same manner as in Reference Example 1. An LPA solution for administration was prepared in the same manner as in Reference Example 1. 5-FU (Kyowa Hakko Kirin Co., Ltd.) was used as an anticancer drug. 5-FU was prepared as a solution in physiological saline (Otsuka Pharmaceutical Co., Ltd.). On day 7 post-inoculation, LLC-bearing mice that had developed a tumor with a volume of 30 to 50 mm^3 were selected and subjected to the experiment. The mice were assigned to three groups: a control group, a 5-FU group and an LPA group (n=3 per group). After grouping, LPA (3 mg/kg/100 μL), 5-FU (100 mg/kg/100 μL) or PBS (100 μL) was intraperitoneally administered to the mice. The administration of LPA or PBS was performed once daily for consecutive seven days. The administration of 5-FU was performed once weekly, 2 times in total (day 7 and day 14 post-inoculation). Tumor size was measured over time after the start of the administration. Tumor volume was calculated by the following formula: length×width×height×0.5."}, "[1]": {"test_system": "tumor blood vessels in LLC tumor-bearing mice", "test": "Structural changes in tumor blood vessels after administration of S1P", "conditions": "0.3 mg/kg via the tail vein once daily for three days, 24 hours after final administration", "experimental": "S1P, a lysophospholipid other than LPA, was examined for the ability to induce vascular network formation in the tumor as with LPA. LLC cells were subcutaneously inoculated into C57BL/6 […] mice aged 8 weeks (females, SLC, Inc.) in the same manner as in Reference Example 1. S1P (Avanti Polar Lipids, Inc.) was dissolved in PBS at 10 mM, and the solution was stored at -30° C. as a stock solution. Before use, the frozen stock solution was thawed and homogenized with an ultrasonic cleaner (SND Co., Ltd.) for 1 minute. The SIP solution was diluted in PBS to an appropriate concentration for administration at a dose of 0.3 mg/kg in […] PBS. LLC-bearing mice on day 9 post-inoculation (animals with a tumor volume of 60 to 80 mm^3) were subjected to the experiment. The mice were divided into two groups: a control group and an S1P group (n=3 per group). After grouping, S1P was administered via the tail vein to the mice of the S1P group at a dose of 0.3 mg/kg in 100 μL PBS once daily for consecutive three days including the day of grouping. For the control group, PBS (100 μL) was administered via the tail vein to the mice instead of S1P. At 24 hours after the final administration, the tumors were harvested from the mice, and specimens of tumor blood vessels were prepared in the same manner as in Reference Example 1. […]"}, "[2]": {"test_system": "tumor blood vessels in Lewis lung cancer (LLC) tumor-bearing mice", "test": "Structural changes in tumor blood vessels (anti-CD31 immunostaining) after administration of LPA or LPA derivative", "conditions": "3 mg/kg intraperitoneally once daily for five days, tumors harvested at 6 days, anti-CD31 staining", "experimental": "LPA or an LPA derivative was administered to tumor-bearing mice generated by subcutaneous inoculation of a mouse cancer cell line, and post-administration structural changes in tumor blood vessels were examined.\nLewis lung cancer cells (hereinafter called LLC cells) were used as the mouse cancer cell line. LLC cells (1×10^6 cells in 100 μL PBS per animal) were subcutaneously injected into C57BL/6 NCrSlc mice aged 8 weeks (females, SLC, Inc.).\nThe LPA used was 18:1 LPA (Avanti Polar Lipids, Inc.). The LPA derivative used was VPC31144S (N-{(1S)-2-hydroxy-1-[(phosphonooxy)methyl]ethyl} (9Z) octade c-9-enamide). A 10 mM LPA stock solution and a 10 mM VPC31144S stock solution were separately prepared using 50% ethanol and stored at −30° C. Before use, each of the frozen stock solutions was thawed and homogenized with an ultrasonic cleaner (SND Co., Ltd.) for 1 minute. The solution was diluted in PBS to an appropriate concentration for administration at a dose of 3 mg/kg in 100 μL PBS.\nOn day 9 post-inoculation, LLC-bearing mice that had developed a tumor with a volume of 60 to 80 mm^3 (volume=length×width×height×0.5) were selected and subjected to the experiment. The mice were assigned to three groups: a control group, an LPA group and a VPC31144S group. Each group consisted of three mice. […]"}},
  "data": [
    {"compound": "O=c1[nH]cc(F)c(=O)[nH]1", "note": "[5-FU, reference compound]", "values": [
      {"measurement": "inhibition of tumor growth (tumor volume) versus control group", "setting": "LLC cells", "result": "remarkable inhibition of tumor growth"}
    ]},
    {"compound": "CCCCCCCCCCCCC/C=C/[C@@H](O)[C@@H](N)COP(=O)(O)O", "note": "[S1P, sphingosine-1-phosphate]", "values": [
      {"measurement": "vascular network formation in the tumor", "setting": "[1]", "result": "induced vascular network formation in the tumor"}
    ]},
    {"compound": "CCCCCCCC/C=C\\CCCCCCCC(=O)N[C@@H](CO)COP(=O)(O)O", "note": "[VPC31144S, N-{(1S)-2-hydroxy-1-[(phosphonooxy)methyl]ethyl} (9Z) octade c-9-enamide]", "values": [
      {"measurement": "network structure of tumor blood vessels", "setting": "[2]", "result": "a continuous network of blood vessels was formed"}
    ]}
  ]
}
